In patent publication US9528143B2, “Tracer reagents that enhance reaction-product analysis” (Sigma-Aldrich Co. LLC, priority 1999, dated 2016):

Key:
restriction enzymes = experiment: Restriction digest of NdeI-cut pUC19 with and without dye, agarose gel; type: biochemical; settings: crude dye, all enzymes tested with the exception of KpnI, FIG. 17
Protocol: The effectiveness of restriction enzymes in cutting target DNA when a dye is present in the reaction mixture was evaluated. A variety of restriction enzymes were assayed for the detrimental effect of adding Amaranth (No. 31, Table 2) to a restriction digest as assayed by agarose gel electrophoresis. NdeI-cut pUC19 plasmid was prepared. This linearized plasmid was then digested with one of several restriction enzymes which normally cut pUC19 at a polylinker site. Thus, each enzyme would be expected to yield a product of similar sizes (ranging from 212 to 263 bp). The restriction enzyme digests were performed in the presence, or absence, of Amaranth dye, and at various concentrations of the enzyme. Column 1 (the leftmost column) contains 100 bp molecular weight ladders. Columns 2-4 contains cleavage products from sequential 5-fold dilutions of the restriction enzymes in the presence of dye. Columns 5-7 are as columns 2-4 but without dye. Columns 2 and 5 contained the restriction enzyme at 1/10th the suppliers concentration (i.e. the enzyme was considered a 10× concentration). The buffers used for the digests were as recommended by the supplier. The enzymes used are listed along the right side of the gel. The relative susceptibility of the enzyme to the dyes' presence is reported next to the enzyme. The sizes of the small bands in the electrophoresis runs range from 212 to 263 bp. […]

Taq DNA polymerase = biological target: T1, Taq DNA polymerase (Thermus aquaticus, UniProt P19821); experiment: PCR yield (TCA precipitation) versus dye concentration, purity and counterion; type: biochemical; settings: for PCR toxicity by counterion: FIGS. 12A and 12B
T1 construct: purchased Sigma Chemical Co., St. Louis, Mo
T1 sequence (P19821 whole entry): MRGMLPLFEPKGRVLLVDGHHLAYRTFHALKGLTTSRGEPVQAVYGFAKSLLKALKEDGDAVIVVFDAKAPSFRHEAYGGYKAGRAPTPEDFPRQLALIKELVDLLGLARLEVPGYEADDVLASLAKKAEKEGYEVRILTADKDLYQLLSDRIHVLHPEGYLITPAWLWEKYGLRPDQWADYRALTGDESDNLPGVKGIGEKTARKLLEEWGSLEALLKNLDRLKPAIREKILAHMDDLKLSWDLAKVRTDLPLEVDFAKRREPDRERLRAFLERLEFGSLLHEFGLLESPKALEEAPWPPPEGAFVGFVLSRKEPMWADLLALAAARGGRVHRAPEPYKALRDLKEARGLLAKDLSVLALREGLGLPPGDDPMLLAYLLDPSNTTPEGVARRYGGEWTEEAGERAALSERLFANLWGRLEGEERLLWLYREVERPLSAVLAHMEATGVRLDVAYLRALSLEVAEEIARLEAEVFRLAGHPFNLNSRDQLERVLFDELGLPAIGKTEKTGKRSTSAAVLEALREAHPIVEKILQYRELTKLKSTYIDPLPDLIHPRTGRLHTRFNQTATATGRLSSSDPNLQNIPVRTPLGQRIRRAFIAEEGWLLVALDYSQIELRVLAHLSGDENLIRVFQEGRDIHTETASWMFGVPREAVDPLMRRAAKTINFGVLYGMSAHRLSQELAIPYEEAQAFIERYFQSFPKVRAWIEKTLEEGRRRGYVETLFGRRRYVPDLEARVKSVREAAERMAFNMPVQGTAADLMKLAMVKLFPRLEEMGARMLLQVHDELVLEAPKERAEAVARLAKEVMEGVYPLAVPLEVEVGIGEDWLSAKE
Protocol: The dyes that survived these preceding tests were included in a PCR toxicity study. The dyes were added to PCR reactions at concentrations considered adequate for product performance. Enough of a 2× PCR master mix consisting of Taq DNA polymerase, 0.1 u/μl (Sigma Chemical Co., St. Louis, Mo.), PCR buffer (2×) (Sigma), dNTP's (200 μM each) (Sigma), α^32PdCTP (Amersham USA, Piscataway, N.J.), target DNA (lambda, 2 ng/μl) (Sigma) and primers (Perkin-Elmer 500 bp control, 2 μM) (Perkin-Elmer, Norwalk, Conn.) was prepared to accommodate all 11 remaining dyes plus three no dye controls. Ten μl of the 2× master mix was dispensed into reaction tubes followed by addition of 10 μl of aqueous darkly colored dye solutions or water (controls). The PCR cycling protocol was 20 cycles of 94/55/72° C. at one minute each. 20 μl of quench solution ([…] calf thymus DNA, 20 mM EDTA) was added followed by precipitation with 40 μl 40% trichloroacetic acid (TCA)/4% sodium pyrophosphate (NaPPi). The reactions were filtered on glass fiber filters, washed with 5% TCA/2% NaPPi and counted by scintillation methods. This quench/precipitation procedure will henceforth be referred to as “TCA precipitation”. […] The dyes that inhibited PCR were dropped from consideration (FIG. 6, PCR Tox, Table 2, those marked under “PCR”). […] Per cycle yield was calculated assuming the overall yield was the per cycle yield raised to the 20th power (FIG. 7). In FIG. 7, T1, T2, and T3 represent Taq controls (no dye) as in block and precipitation, numerals are dye number. Per cycle yield is calculated assuming […] where y is the 20 cycle yield (measured) and y1 is the per cycle yield. Table 3 summarizes the results as graphically depicted in FIG. 7 for each of dyes 23, 24, 25, 26, 31, and 39.
On the basis of performance to this point, the remaining dyes were considered substantially equivalent as tracer candidates. Acid violet 5 (number 39, Table 2) was chosen as a possible finalist candidate. Using this dye in a reaction mix at an absorbance of 10 (at its absorbance maximum of 527 nm) a PCR reaction was performed. […] This was considered unacceptable, but was overcome by further development efforts.
In general, the available dyes, as well as those investigated, are derived from unrelated applications. That is, many are used as fabric dyes, food colorings, biological stains etc. As such, they are available in various states of purity. In the case of the finalists, they all had purities of 80% or less, as determined by the product labels. In further experiments, PCR yields (determined by TCA precipitation) in reactions containing various concentrations of acid violet 5 (determined by A527) were compared before and after purification of the crude dye by reverse phase desalting. […] Since reversed phase desalting is not an attractive method for large scale dye purification, acid precipitation followed by ammonium hydroxide dissolution/evaporation to produce the ammonium dye was investigated. This procedure should result in an essentially salt free product. These procedures (reversed phase desalting and acid/ammonium hydroxide) were carried out for acid red 1 (No. 26, Table 2) and acid violet 5 (No. 39). […] The dyes were converted to their magnesium salts to further characterize the effect of counterion identity. This was accomplished by addition of magnesium chloride (excess) to a solution of the crude dye. The magnesium dye that immediately precipitated was recrystallized from water. […] In analogy with the magnesium salts, the calcium and zinc salts of acid red 1 were prepared to investigate whether the effect was divalent vs. monovalent cation or cation identity specific.

Taq polymerase = Taq polymerase (Thermus aquaticus, UniProt P19821); settings: Hoppe et al., BioTechniques 12:679-680 (1992); cited from earlier work
Sequence of Taq polymerase (P19821 whole entry): as above

| Compound | PCR toxicity by counterion (Taq DNA polymerase) | compatibility with Taq (Taq polymerase) | also measured |
| --- | --- | --- | --- |
| O=S(=O)([O-])c1ccc2c(N=Nc3ccc(S(=O)(=O)[O-])c4ccccc34)c(O)c(S(=O)(=O)[O-])cc2c1.[Na+].[Na+].[Na+] [Dye 31, Amaranth] | – | – | effect of dye on restriction enzyme digests (restriction enzymes): relatively inert |
| CC(=O)Nc1ccc(N=Nc2c(S(=O)(=O)[O-])cc3cc(S(=O)(=O)[O-])cc(NS(=O)(=O)c4ccc(C)cc4)c3c2O)cc1.[Na+].[Na+] [Dye 39, Acid Violet 5] | – | – | loss in PCR product yield (Taq DNA polymerase; dye in reaction mix at absorbance of 10 at 527 nm, relative to same reaction without dye, FIG. 10): ≥ 50% |
| CC(=O)Nc1cc(S(=O)(=O)[O-])cc2cc(S(=O)(=O)[O-])c(N=Nc3ccccc3)c(O)c12.[Na+].[Na+] [acid red 1 Mg salt, acid red 1] | much less toxic to PCR than either the sodium or ammonium salts | – | PCR toxicity of magnesium vs calcium and zinc salts (Taq DNA polymerase; FIG. 12C): least toxic |
| CC(=O)Nc1cc(S(=O)(=O)[O-])cc2cc(S(=O)(=O)[O-])c(N=Nc3ccccc3)c(O)c12.[Na+].[Na+] [acid red 1 ammonium, acid red 1] | more PCR toxic than the sodium | – | – |
| Cc1cc(C2(c3ccc(O)c(C)c3)OS(=O)(=O)c3ccccc32)ccc1O [cresol red] | – | compatible with Taq | – |
| OC[C@H]1O[C@@](CO)(O[C@H]2O[C@H](CO)[C@@H](O)[C@H](O)[C@H]2O)[C@@H](O)[C@@H]1O [sucrose] | – | compatible with Taq | – |
| O=C([O-])C1=NN(c2ccc(S(=O)(=O)[O-])cc2)C(=O)C1N=Nc1ccc(S(=O)(=O)[O-])cc1.[Na+].[Na+].[Na+] (centres unmarked) [tartrazine] | – | compatible with Taq | – |
| acid violet 5 [acid violet 5 Mg salt] | much less toxic to PCR than either the sodium or ammonium salts | – | – |
| acid violet 5 [acid violet 5 ammonium] | more PCR toxic than the sodium | – | – |
| acid violet 5 [acid violet 5 desalted] | – | – | susceptibility of PCR product yield to dye concentration (Taq DNA polymerase; desalted relative to crude compound, FIG. 11): much less susceptible to dye concentration |
